# In US20240389594A1 (priority 2020, published 2024):
# Where two headings read alike, the source gives them in different places.
# Assays:
# Format in all cases: cell-based
# Septoria tritici [1] = assay: Microtest, leaf blotch on wheat caused by Septoria tritici (SEPTTR), Example 2; conditions: single compound, 7 days
# Alternaria solani = assay: Microtest, early blight caused by Alternaria solani (ALTESO), Example 1; conditions: single compound, 7 days
# [2] = system: Colletotrichum orbiculare; assay: Microtiterplate test, anthracnose caused by Colletotrichum orbiculare (COLLLA), Example 1; conditions: single compound, 7 days
# Botrytis cinerea = system: Botrytis cinerea
# Pyricularia oryzae = conditions: PYRIOR, single compound, 7 days
# Septoria tritici [3] = conditions: 7 days
smiles,measurement,setting,value
"CON(Cc1ccc(-c2noc(C(F)(F)F)n2)cc1)C(=O)C1CC1 [Compound II-2, N-methoxy-N-[[4-[5-(trifluoromethyl)-1,2,4-oxadiazol-3-yl]phenyl]methyl]cyclopropanecarboxamide]",Observed efficacy,Septoria tritici [1]; 0.25 ppm,9%
"Cc1cccc(-n2nnn(C)c2=O)c1COc1ccn(-c2ccc(Cl)cc2)n1 [Methyltetraprol, metyltetraprole]",Observed efficacy,Septoria tritici [1]; 0.004 ppm,0%
same,Observed efficacy,Alternaria solani; 0.004 ppm,12%
same,Observed efficacy,Alternaria solani; 0.016 ppm,31%
same,Observed efficacy,[2]; 0.063 ppm,0%
same,Observed efficacy,Botrytis cinerea; 7 days,52%
same,Observed efficacy,Pyricularia oryzae; 0.004 ppm,3%
same,Observed efficacy,Pyricularia oryzae; 0.016 ppm,11%
"CCC(=O)Oc1c(OC)ccnc1C(=O)N[C@@H](C)C(=O)O[C@@H](C)[C@@H](C)c1ccccc1C [Compound II-1, [(1 S,2S)-1-methyl-2-(o-tolyl)propyl] (2S)-2-[(4-methoxy-3-propanoyloxy-pyridine-2-carbonyl)amino]propanoate]",Observed efficacy,Septoria tritici [3],15%
same,Observed efficacy,Alternaria solani; 1 ppm,42%
same,Observed efficacy,[2]; 0.25 ppm,0%
same,Observed efficacy,[2]; 1 ppm,0%
same,Observed efficacy,Botrytis cinerea,13%
same,Observed efficacy,Pyricularia oryzae; 1 ppm,10%
